In this assay the test system is 4T1. Kind of assay: Induction of apoptosis in mouse 4T1 cells after 72 hrs using propidium iodide staining byflow cytometry analysis. The assay is classed as functional, cell-based. The following applies: 4T1, 72 h.

For the compound `CNC(=O)c1ccccc1Nc1cc(Nc2ccc(N3CCOCC3)cc2OC)ncc1C(F)(F)F`, the 50% inhibitory concentration (IC50) amounted to 100 nM.

The IC50 is the midpoint of a concentration-inhibition curve. The low end stands for inhibition by little substance, the high end for a need for much substance.
